What was measured:
[1] = test system: human osteosarcoma cells (MG-63); assay: Cytotoxicity by SRB assay, MG-63 cells; assay type: cell-based; details: 0.01 μM to 100 μM, 72 h
Procedure: (§1) The human prostate cancer cells (PC3) and human osteosarcoma cells (MG-63) were obtained from Nawah Scientific Inc. (Mokatam, Cairo, Egypt) and cultured in DMEM (Dulbecco's modified eagle's medium), Gibco, USA, supplemented with fetal bovine serum (FBS) at a concentration of 10% and […]. of penicillin and streptomycin (PS). The Cells were incubated at 37° C. in a humidified environment that contained 5% CO2.
(§2) Cells were seeded in 96-well plates as aliquots of 100 μL cell suspension and incubated in a complete media for 24 h. afterward, cells were treated with 2-(1-(3-(Dimethylanino)propyl)-4,5-diphenyl-1H-imidazol-2-yl)pyridin-3-ol at diverse concentrations ranging from 0.01 μM to 100 μM for 72 h. Then, cells were fixed at 4° C. for one hour with 150 μL of 10% trichloroacetic acid (TCA). After washing the cells five times with distilled water, 70 μL of sulforhodamine (SRB) solution (0.4% w/v) was added and incubated for 10 min at room temperature in a dark place. […] Then, 150 μL of Tris pH 10.5 (10 mM) was added, and the absorbance was measured at 540 nm using a BMG LABTECH®-FiLJOstar Omega microplate reader (Ortenberg, Germany). Half maximal inhibitory concentrations (IC50) values were calculated for each experiment using GraphPad Prism 6 software. […]
(§3) The inhibition was calculated using the following equation: Inhibition %=100−Average Viability

[2] = test system: human prostate cancer cells (PC3); assay: Cytotoxicity by SRB assay, PC3 cells; assay type: cell-based; details: 0.01 μM to 100 μM, 72 h
Procedure: as §1, §2, §3

For CN(C)CCCn1c(-c2ncccc2O)nc(-c2ccccc2)c1-c1ccccc1 [2-(1-(3-(Dimethylamino)propyl)-4,5-diphenyl-1H-imidazol-2-yl)pyridin-3-ol], the antiproliferative activity [1] was “excellent antiproliferative activities”, the antiproliferative activity [2] was “excellent antiproliferative activities” and the melting point was 133 to 135 °C.

Reference: US11952361B1, “2-(1-(3-(dimethylamino)propyl)-4,5-diphenyl-1H-imidazol-2-yl) pyridin-3-ol as an antitumor and antimicrobial compound” (KING FAISAL UNIVERSITY, priority 2023, dated 2024)
